Laboratory results taken from patent US10556902B2 (Asceneuron SA, priority 2016, dated 2020).
Where two headings read alike, the source gives them in different places.

Target: His-Tagged hOGA (human O-GlcNAcase) (Homo sapiens (Human), UniProt O60502)
Experiment: Human O-GlcNAcase enzyme inhibition assay;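 note: reactions contained 20 nM His-tagged hOGA enzyme with 10 µM FL-GlcNAc substrate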
Type: biochemical
Settings: FL-GlcNAc substrate
[1] = OGA enzyme inhibition assay, pH 6.5, activity classes defined in μM, read-out: OGA IC50
[2] = OGA IC50 (M), pH 6.5, activity classes defined in μM

His-Tagged hOGA (human O-GlcNAcase), sequence (O60502 whole entry): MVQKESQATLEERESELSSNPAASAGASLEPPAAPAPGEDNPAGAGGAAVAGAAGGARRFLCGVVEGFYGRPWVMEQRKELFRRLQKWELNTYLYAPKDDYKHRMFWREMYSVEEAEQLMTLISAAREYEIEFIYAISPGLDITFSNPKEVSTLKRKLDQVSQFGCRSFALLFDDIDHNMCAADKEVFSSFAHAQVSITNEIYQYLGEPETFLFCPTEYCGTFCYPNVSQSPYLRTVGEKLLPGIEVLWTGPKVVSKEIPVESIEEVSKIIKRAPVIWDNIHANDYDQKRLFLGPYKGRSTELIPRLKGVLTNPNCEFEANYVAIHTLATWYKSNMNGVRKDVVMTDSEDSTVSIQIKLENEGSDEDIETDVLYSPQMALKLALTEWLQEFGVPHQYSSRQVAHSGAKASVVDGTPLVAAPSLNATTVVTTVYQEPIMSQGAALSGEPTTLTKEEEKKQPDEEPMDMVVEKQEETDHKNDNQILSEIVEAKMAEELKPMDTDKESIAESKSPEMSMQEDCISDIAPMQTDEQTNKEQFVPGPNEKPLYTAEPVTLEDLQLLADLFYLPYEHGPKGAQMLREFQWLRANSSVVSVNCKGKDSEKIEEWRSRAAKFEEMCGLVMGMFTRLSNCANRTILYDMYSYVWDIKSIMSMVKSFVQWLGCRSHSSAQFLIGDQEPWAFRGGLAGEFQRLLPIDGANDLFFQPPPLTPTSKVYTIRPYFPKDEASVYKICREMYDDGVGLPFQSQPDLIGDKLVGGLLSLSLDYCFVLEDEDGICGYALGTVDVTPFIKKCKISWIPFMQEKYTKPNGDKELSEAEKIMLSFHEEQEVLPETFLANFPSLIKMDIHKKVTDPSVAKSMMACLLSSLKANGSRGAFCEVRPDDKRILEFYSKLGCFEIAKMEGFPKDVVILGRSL
Procedure: Then, 20 nM of His-Tagged hOGA and 10 μM of FL-GlcNAc (Fluorescein mono-beta-D-(2-deoxy-2-N-acetyl) glucopyranoside; Marker Gene Technologies Inc, M1485) were added to the 384-well plate for a final volume of 20 μl.

| Structure (SMILES) | IC50 [1] [µM] | IC50 [2] [µM] |
| --- | --- | --- |
| CNC(=O)c1cnc(N2CCN(C(C)c3ccc4scnc4c3)CC2)nc1 (racemic) [Example 96, 2-(4-(1-(benzo[d]thiazol-5-yl)ethyl)piperazin-1-yl)-N-methylpyrimidine-5-carboxamide] | < 0.05 |  |
| CC(c1ccc2scnc2c1)N1CCN(c2ncc(C(=O)N(C)C)cn2)CC1 (racemic) [Example 97, 2-(4-(1-(benzo[d]thiazol-5-yl)ethyl)piperazin-1-yl)-N,N-dimethylpyrimidine-5-carboxamide] | < 0.05 |  |
| COC(=O)c1cnc(N2CCN(C(C)c3ccc4c(c3)OCC4)CC2)nc1 (racemic) [Example 98, Methyl 2-(4-(1-(2,3-dihydrobenzofuran-6-yl)ethyl)piperazin-1-yl)pyrimidine-5-carboxylate] | < 0.05 |  |
| CNC(=O)c1cnc(N2CCN(C(C)c3ccc4c(c3)OCC4)CC2)nc1 (racemic) [Example 99, 2-(4-(1-(2,3-dihydrobenzofuran-6-yl)ethyl)piperazin-1-yl)-N-methylpyrimidine-5-carboxamide] | < 0.05 |  |
| CC(c1ccc2c(c1)OCC2)N1CCN(c2ncc(C(=O)N(C)C)cn2)CC1 (racemic) [Example 100, 2-(4-(1-(2,3-dihydrobenzofuran-6-yl)ethyl)piperazin-1-yl)-N,N-dimethylpyrimidine-5-carboxamide] | < 0.05 |  |
| CC(c1ccc2c(c1)OCC2)N1CCN(c2nccc(C(=O)N(C)C)n2)CC1 (racemic) [Example 101, 2-(4-(1-(2,3-dihydrobenzofuran-6-yl)ethyl)piperazin-1-yl)-N,N-dimethylpyrimidine-4-carboxamide] | < 0.05 |  |
| COC(=O)c1ccnc(N2CCN(C(C)c3ccc4c(c3)OCC4)CC2)n1 (racemic) [Example 102, Methyl 2-(4-(1-(2,3-dihydrobenzofuran-6-yl)ethyl)piperazin-1-yl)pyrimidine-4-carboxylate] | < 0.05 |  |
| CNC(=O)c1ccnc(N2CCN(C(C)c3ccc4c(c3)OCC4)CC2)n1 (racemic) [Example 103, 2-(4-(1-(2,3-dihydrobenzofuran-6-yl)ethyl)piperazin-1-yl)-N-methylpyrimidine-4-carboxamide] | < 0.05 |  |
| CC(=O)NC(C)(C)c1cnc(N2CCN(C(C)c3ccc4c(c3)OCC4)CC2)nc1 (racemic) [Example 104] | < 0.05 |  |
| COC(=O)c1cnc(N2CCN(C(C)c3ccc4nccnc4c3)CC2)nc1 (racemic) [Example 105, Methyl 2-(4-(1-(quinoxalin-6-yl)ethyl)piperazin-1-yl)pyrimidine-5-carboxylate] | 0.05 to 0.2 |  |
| CC(c1ccc2nccnc2c1)N1CCN(c2ncc(C(=O)O)cn2)CC1 (racemic) [Example 106, 2-(4-(1-(quinoxalin-6-yl)ethyl)piperazin-1-yl)pyrimidine-5-carboxylic acid] | 0.05 to 0.2 |  |
| CC(=O)NC(C)(C)c1cnc(N2CCN(C(C)c3ccc4nccnc4c3)CC2)nc1 (racemic) [Example 107, N-(2-(2-(4-(1-(quinoxalin-6-yl)ethyl)piperazin-1-yl)pyrimidin-5-yl)propan-2-yl)acetamide] | 0.2 to 1 |  |
| CC(=O)NCc1nnc(N2CCN(C(C)c3ccc4c(c3)OCC4)CC2)s1 (racemic) [Example 110] | < 0.05 |  |
| CC(=O)Nc1nnc(N2CCN(C(C)c3cnc4cccnc4c3)CC2)s1 (racemic) [Example 111, N-(5-(4-(1-(1,5-naphthyridin-3-yl)ethyl)piperazin-1-yl)-1,3,4-thiadiazol-2-yl)acetamide] | 0.05 to 0.2 |  |
| CC(=O)NCc1nnc(N2CCN(C(C)c3ccc4nccnc4c3)CC2)s1 (racemic) [Example 112, N-((5-(4-(1-(quinoxalin-6-yl)ethyl)piperazin-1-yl)-1,3,4-thiadiazol-2-yl)methyl)acetamide] | 0.05 to 0.2 |  |
| CC(c1ccc2c(c1)OCC2)N1CCN(c2nnc(CO)s2)CC1 (racemic) [Example 113, (5-(4-(1-(2,3-dihydrobenzofuran-6-yl)ethyl)piperazin-1-yl)-1,3,4-thiadiazol-2-yl)methanol] | < 0.05 |  |
| CC(O)c1nnc(N2CCN(C(C)c3ccc4c(c3)OCC4)CC2)s1 (racemic) [Example 114, 1-(5-(4-(1-(2,3-dihydrobenzofuran-6-yl)ethyl)piperazin-1-yl)-1,3,4-thiadiazol-2-yl)ethan-1-ol] | < 0.05 |  |
| CC(O)c1nnc(N2CCN(C(C)c3ccc4nccnc4c3)CC2)s1 (racemic) [Example 115, 1-(5-(4-(1-(quinoxalin-6-yl)ethyl)piperazin-1-yl)-1,3,4-thiadiazol-2-yl)ethan-1-ol] |  | 0.2 to 1 |
| Cc1nnc(N2CCN(C(C)c3ccc4nccnc4c3)CC2)s1 (racemic) [Example 116, 2-methyl-5-(4-(1-(quinoxalin-6-yl)ethyl)piperazin-1-yl)-1,3,4-thiadiazolequinoxaline] | 0.2 to 1 |  |

| Structure (SMILES) | IC50 [1] [µM] | IC50 [2] [µM] |
| --- | --- | --- |
| CCOC(=O)c1nnc(N2CCN(C(C)c3ccc4c(c3)OCC4)CC2)s1 (racemic) [Example 117, Ethyl 5-(4-(1-(2,3-dihydrobenzofuran-6-yl)ethyl)piperazin-1-yl)-1,3,4-thiadiazole-2-carboxylate] | 0.05 to 0.2 |  |
| CNC(=O)c1nnc(N2CCN(C(C)c3ccc4c(c3)OCC4)CC2)s1 (racemic) [Example 118, 5-(4-(1-(2,3-dihydrobenzofuran-6-yl)ethyl)piperazin-1-yl)-N-methyl-1,3,4-thiadiazole-2-carboxamide] | < 0.05 |  |
| CC(c1ccc2c(c1)OCC2)N1CCN(c2nnc(C(=O)N(C)C)s2)CC1 (racemic) [Example 119, 5-(4-(1-(2,3-dihydrobenzofuran-6-yl)ethyl)piperazin-1-yl)-N,N-dimethyl-1,3,4-thiadiazole-2-carboxamide] | < 0.05 |  |
| CCOC(=O)c1nnc(N2CCN(C(C)c3ccc4nccnc4c3)CC2)s1 (racemic) [Example 120, Ethyl 5-(4-(1-(quinoxalin-6-yl)ethyl)piperazin-1-yl)-1,3,4-thiadiazole-2-carboxylate] | 1 to 10 |  |
| CNC(=O)c1nnc(N2CCN(C(C)c3ccc4nccnc4c3)CC2)s1 (racemic) [Example 121, N-methyl-5-(4-(1-(quinoxalin-6-yl)ethyl)piperazin-1-yl)-1,3,4-thiadiazole-2-carboxamide] | 0.2 to 1 |  |
| CC(c1ccc2nccnc2c1)N1CCN(c2nnc(C(=O)N(C)C)s2)CC1 (racemic) [Example 122, N,N-dimethyl-5-(4-(1-(quinoxalin-6-yl)ethyl)piperazin-1-yl)-1,3,4-thiadiazole-2 carboxamide] | 0.2 to 1 |  |
| CC(c1ccc2c(c1)OCC2)N1CCN(c2nnc(CN(C)C)s2)CC1 (racemic) [Example 123, 1-(5-(4-(1-(2,3-dihydrobenzofuran-6-yl)ethyl)piperazin-1-yl)-1,3,4-thiadiazol-2-yl)-N,N-dimethylmethanamine] | < 0.05 |  |
| CC(c1ccc2c(c1)OCC2)N1CCN(c2nnc(CN)s2)CC1 (racemic) [Example 124, (5-(4-(1-(2,3-dihydrobenzofuran-6-yl)ethyl)piperazin-1-yl)-1,3,4-thiadiazol-2-yl)methanamine] | < 0.05 |  |
| CC(c1ccc2nccnc2c1)N1CCN(c2nnc(CN(C)C)s2)CC1 (racemic) [Example 125, N,N-dimethyl-1-(5-(4-(1-(quinoxalin-6-yl)ethyl)piperazin-1-yl)-1,3,4-thiadiazol-2-yl)methanamine] | 0.2 to 1 |  |
| CC(c1ccc2nccnc2c1)N1CCN(c2nnc(CN)s2)CC1 (racemic) [Example 126, (5-(4-(1-(quinoxalin-6-yl)ethyl)piperazin-1-yl)-1,3,4-thiadiazol-2-yl)methanamine] | 0.2 to 1 |  |
| CC(c1ccc2c(c1)OCC2)N1CCN(c2nc3c(s2)CNCC3)CC1 (single isomer, unassigned) [Example 17] | < 0.05 |  |
| CC(c1ccc2nccnc2c1)N1CCN(c2ccc(=O)[nH]n2)CC1 (single isomer, unassigned) [Example 38, (S)-6-(4-(1-(quinoxalin-6-yl)ethyl)piperazin-1-yl)pyridazin-3(2H)-one or (R)-6-(4-(1-(quinoxalin-6-yl)ethyl)piperazin-1-yl)pyridazin-3(2H)-one] | 0.05 to 0.2 |  |
| CC(=O)Nc1nnc(N2CCN(C(C)c3ccc4c(c3)OCC4)CC2)s1 (single isomer, unassigned) [Example 108] | 1 to 10 |  |
| CC(=O)Nc1nnc(N2CCN(C(C)c3ccc4c(c3)OCC4)CC2)s1 (single isomer, unassigned) [Example 109] | < 0.05 |  |
| CC(c1ccc2nccnc2c1)N1CCC(n2cc(C(F)(F)F)cn2)CC1 (stereo not shown) [Example 31] |  | 1 to 10 |
| CC(c1ccc2nccnc2c1)N1CCN(c2ccc(=O)[nH]n2)CC1 (stereo not shown) [Example 39] |  | 0.05 to 0.2 |
| C[C@@H](c1cnc2cccnc2c1)N1CCN(c2ncc(C(F)(F)F)cn2)CC1 [Example 221] | 0.2 to 1 |  |
| CC(=O)Nc1nnc(N2CCN([C@@H](C)c3cnc4cccnc4c3)CC2)s1 [Example 222] | 0.05 to 0.2 |  |
